Where two headings read alike, the source gives them in different places.
Columns and labels:
HCT116 cells [1] = assay: CCK-8 cell viability assay; type: cell-based; conditions: for IC50: Homo sapiens
Description: (§1) The cells were cultured in 96-well plates at a density of 5 × 10^3 cells/well. Cell viability was assessed with CCK-8 Kit at indicated time post-treatment according to the manufacturer’s instructions. To estimate the viability of the cells, the absorbance of 450 nm (OD450) was measured with a Microplate Reader (BIO-TEK, Inc., Winooski, VT, United States). The IC50 value was calculated by GraphPad Prism 8.0 (San Diego, CA, United States) software.

[2] = Body weight of xenograft mice; type: in vivo, BALB/c nude mice; conditions: 10 mg/kg/d ip over 21 days
Description: (§2) Male BALB/c nude mice (5–6 weeks) were purchased from the Jiesijie Experimental Animal Co. Ltd (Shanghai, China). All mice were maintained under SPF conditions and at constant temperature (25 °C) and relative humidity (65%) with a 12 h light/dark cycle. HCT116 cells (1 × 10^6) were inoculated into 6–7 weeks-old mice subcutaneously. Tumor volumes were evaluated by calipers and calculated using the standard formula: volume = length × width^2 × 0.5. Once tumor volume exceeded approximately 100 mm^3. […] Tumor volume was measured every 2 days. The protocols for animal care and euthanasia were approved by the Institutional Animal Care and Use Committee of Shanghai Ocean University (Shanghai, China).

HT29 cells [3] = assay: Colony formation assay; type: cell-based; conditions: HT29, 0.2, 0.5 and 1 μM, 14 days
Description: (§3) The culture medium was refreshed every other day. Cells were then continuously incubated in a new fresh medium for 10–14 days, the colonies were fixed with methanol for 15 min, stained with 0.5% crystal violet for 15 min, and photographed. Colonies were manually counted using ImageJ software.

HCT116 cells [4] = assay: Colony formation assay; type: cell-based; conditions: HCT116, 0.2, 0.5 and 1 μM, 14 days
Description: as §3

HCT116 xenograft = HCT116 xenograft model in nude mice; type: in vivo, BALB/c nude mice
Description: as §2

[5] = test system: normal renal epithelial 293T cells; assay: CCK-8 cell viability assay (normal cells); type: cell-based; conditions: low concentration of HR488B (0.1-1 μM), 72 h
Description: as §1

HT29 cells [6] = assay: CCK-8 cell viability assay; type: cell-based; conditions: Homo sapiens, HT-29, 72 h
Description: as §1

[7] = test system: acetylated H3/H4 protein in HCT116 cells; assay: Western blot of acetylated H3/H4; type: cell-based; conditions: HCT116, 0.2, 0.5 and 1 μM, 24 h, compared with SAHA 1 μM
Description: (§4) Western blot analysis was performed as in our previous reports. The cells were lysed in RIPA buffer with a complete protease inhibitor cocktail for 10 min on ice followed by centrifugation at 4 °C. The concentration of proteins was determined by the BCA Protein Kit (TIANGEN, Shanghai, China). Equal amounts of total proteins were resuspended in loading buffer, boiled at 100 °C for 5 min, and separated by 10–15% […] gel electrophoresis (SDS-PAGE). Proteins were transferred onto PVDF membranes (Merck Millipore, #IPFL00010, Germany), then the membranes were blocked with 5% non-fat dry milk, and the membranes were incubated with indicated primary antibodies diluted in BSA buffer, overnight at 4 °C. The membranes were washed three times in TBST followed by 1 h incubation with secondary antibodies conjugated with horseradish peroxidase (HRP) at room temperature. Then the membranes were washed before enhanced chemiluminescence. Immunoblots were visualized with the Bio-Rad ChemiDoc XRS system. Quantification was directly performed on the blot using the Image Lab software.

[8] = test system: acetylated H3/H4 protein in HT29 cells; assay: Western blot of acetylated H3/H4; type: cell-based; conditions: HT29, 0.2, 0.5 and 1 μM, 24 h, compared with SAHA 1 μM
Description: as §4

SMILES: O=C(CCCCCCC(=O)Nc1ccccc1)NO [SAHA, reference compound]
- IC50 (HCT116 cells [1]; HCT-116, 72 h): 2130 nM
- body weight of mice [2]: did not decrease notably

SMILES: COc1ccc(N(Cc2nc(-c3ccccc3Cl)cs2)C(=O)CCCCCC(=O)NO)cc1 [HR488B]
- number and size of colonies (HT29 cells [3]): obviously reduced the number and size of the colonies
- number and size of colonies (HCT116 cells [4]): obviously reduced the number and size of the colonies
- average tumor weight (HCT116 xenograft; 10 mg/kg ip, compared with control and SAHA-treated group): obviously lower
- tumor volume (HCT116 xenograft; 10 mg/kg/d ip over 21 days, compared with control group and SAHA treatment group): marked reduction in tumor volume
- cellular toxicity of 293T cells [5]: did not observe any significant cellular toxicity
- IC50 (HT29 cells [6]): 590 nM
- inhibitory effect on cell viability (in-house HDACi library screen) (HCT116 cells [1]; HCT116 cells, 2.5 μM, 72 h, CCK-8): optimum inhibitory effect
- IC50 (HCT116 cells [1]; HCT-116, HCT116 cells, 72 h, CCK-8, read-out: IC50): 170 nM
- acetylation of H3 and H4 [7]: significantly increased the acetylation of H3 and H4 in a dose-dependent manner
- acetylation of H3 and H4 [8]: significantly increased the acetylation of H3 and H4 in a dose-dependent manner
- body weight of mice [2]: did not decrease notably

Reference: PMC10703885 (Cell Death & Disease, 2023)
